Measurements: patent US11168073B2, “3,3-difluoroallylamines or salts thereof and pharmaceutical compositions comprising the same” (YUHAN CORPORATION, priority 2018, dated 2021)
Structures can show the parent of a compound that is named as a salt. Where two headings read alike, the source gives them in different places.

Legend:
Type in all cases: biochemical
recombinant human VAP-1 = target: T1, recombinant human VAP-1 (Homo sapiens, UniProt Q16853); test: Activity evaluation on recombinant human VAP-1 (Amplex Red/HRP-coupled hydrogen peroxide assay, benzylamine substrate); conditions: read-out: Inhibitory Activity (IC50, nM) human VAP-1
T1 construct: purchased R&D systems
T1 sequence (Q16853 1-763): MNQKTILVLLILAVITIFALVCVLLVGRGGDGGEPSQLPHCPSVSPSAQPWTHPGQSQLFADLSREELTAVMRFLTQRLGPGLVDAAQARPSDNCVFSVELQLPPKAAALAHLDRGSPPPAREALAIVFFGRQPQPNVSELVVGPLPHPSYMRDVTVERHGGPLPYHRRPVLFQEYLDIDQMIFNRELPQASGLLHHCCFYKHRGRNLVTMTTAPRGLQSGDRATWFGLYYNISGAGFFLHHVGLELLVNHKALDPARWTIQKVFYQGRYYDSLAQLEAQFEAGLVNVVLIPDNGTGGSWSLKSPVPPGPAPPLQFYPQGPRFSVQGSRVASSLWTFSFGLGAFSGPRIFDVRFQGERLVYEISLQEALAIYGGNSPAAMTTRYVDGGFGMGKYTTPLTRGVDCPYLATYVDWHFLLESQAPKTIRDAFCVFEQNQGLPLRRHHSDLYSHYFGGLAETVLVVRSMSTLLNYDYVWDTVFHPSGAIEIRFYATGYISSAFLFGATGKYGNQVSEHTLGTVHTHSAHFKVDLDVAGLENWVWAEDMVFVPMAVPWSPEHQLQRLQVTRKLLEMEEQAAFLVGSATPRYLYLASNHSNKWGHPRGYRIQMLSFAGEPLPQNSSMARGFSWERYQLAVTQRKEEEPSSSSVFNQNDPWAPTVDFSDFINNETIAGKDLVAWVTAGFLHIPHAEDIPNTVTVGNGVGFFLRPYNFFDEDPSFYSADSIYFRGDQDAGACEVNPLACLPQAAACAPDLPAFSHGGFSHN
Outline: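 Hydrogen peroxide from benzylamine (1 mM) oxidation by human recombinant VAP-1 detected via HRP-coupled Amplex Red (200 uM) fluorescence, kinetic over 1–2 h. Enzyme and compound preincubated 30 min at 37 °C, pH 7.4 phosphate; 8-point dose response, signal-rate decrease versus DMSO control fitted to four-parameter logistic for IC50.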

[1] = target: T2, recombinant human MAO-B (monoamine oxidase-B) (Homo sapiens, UniProt P27338); test: Activity evaluation on recombinant human MAO-B (Amplex Red/HRP-coupled assay, 1 mM benzylamine substrate); conditions: read-out: Inhibitory Activity (IC50, nM) MAO-B
T2 construct: purchased Sigma-Aldrich
T2 sequence (P27338 1-520): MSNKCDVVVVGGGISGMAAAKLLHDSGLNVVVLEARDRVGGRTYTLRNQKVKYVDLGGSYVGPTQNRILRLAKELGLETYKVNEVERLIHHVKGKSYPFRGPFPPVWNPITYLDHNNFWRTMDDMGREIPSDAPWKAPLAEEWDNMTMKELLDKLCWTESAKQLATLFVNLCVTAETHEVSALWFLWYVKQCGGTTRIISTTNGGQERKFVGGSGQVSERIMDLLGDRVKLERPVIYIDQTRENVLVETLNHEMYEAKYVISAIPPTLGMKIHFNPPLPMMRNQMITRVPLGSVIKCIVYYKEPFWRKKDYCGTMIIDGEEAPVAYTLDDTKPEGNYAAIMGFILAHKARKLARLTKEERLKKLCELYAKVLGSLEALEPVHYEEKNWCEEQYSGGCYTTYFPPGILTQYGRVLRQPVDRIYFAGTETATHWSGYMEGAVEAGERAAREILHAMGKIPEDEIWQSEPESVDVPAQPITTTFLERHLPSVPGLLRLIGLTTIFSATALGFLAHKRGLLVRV
Outline: (§1)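 8-pt 1:3 dilution series, final DMSO <1%; 30 min 37 °C preincubation w/ enzyme, 50 mM Na phosphate pH 7.4; + 200 uM Amplex Red, 1 U/mL HRP, substrate (MAO-A tyramine 0.5 mM; MAO-B benzylamine 1 mM; DAO putrescine 1 mM); fluor. rate 544/590 nm, 1-2 h; 4-param IC50.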

[2] = target: T3, recombinant human MAO-A (monoamine oxidase-A) (Homo sapiens, UniProt P21397); test: Activity evaluation on recombinant human MAO-A (Amplex Red/HRP-coupled assay, 0.5 mM tyramine substrate); conditions: read-out: Inhibitory Activity (IC50, nM) MAO-A
T3 construct: purchased Sigma-Aldrich
T3 sequence (P21397 1-527): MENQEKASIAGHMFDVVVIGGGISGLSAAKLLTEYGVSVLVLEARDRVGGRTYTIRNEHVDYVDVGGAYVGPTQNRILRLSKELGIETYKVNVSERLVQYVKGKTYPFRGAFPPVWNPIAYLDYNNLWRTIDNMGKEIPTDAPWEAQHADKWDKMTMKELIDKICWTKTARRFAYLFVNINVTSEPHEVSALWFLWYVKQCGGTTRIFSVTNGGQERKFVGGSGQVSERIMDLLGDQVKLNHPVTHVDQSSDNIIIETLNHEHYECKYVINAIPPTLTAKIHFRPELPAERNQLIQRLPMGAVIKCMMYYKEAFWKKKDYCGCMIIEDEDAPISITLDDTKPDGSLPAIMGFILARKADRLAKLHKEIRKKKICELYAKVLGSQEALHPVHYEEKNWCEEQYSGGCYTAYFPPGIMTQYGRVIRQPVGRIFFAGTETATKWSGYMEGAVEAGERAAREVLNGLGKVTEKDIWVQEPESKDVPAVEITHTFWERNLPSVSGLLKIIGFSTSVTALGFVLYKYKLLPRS
Outline: as §1

[3] = target: T4, recombinant human DAO (diamine oxidase) (Homo sapiens, UniProt P19801); test: Activity evaluation on recombinant human DAO (Amplex Red/HRP-coupled assay, 1 mM putrescine substrate); conditions: read-out: Inhibitory Activity (IC50, nM) DAO
T4 construct: purchased R&D systems
T4 sequence (P19801 20-751): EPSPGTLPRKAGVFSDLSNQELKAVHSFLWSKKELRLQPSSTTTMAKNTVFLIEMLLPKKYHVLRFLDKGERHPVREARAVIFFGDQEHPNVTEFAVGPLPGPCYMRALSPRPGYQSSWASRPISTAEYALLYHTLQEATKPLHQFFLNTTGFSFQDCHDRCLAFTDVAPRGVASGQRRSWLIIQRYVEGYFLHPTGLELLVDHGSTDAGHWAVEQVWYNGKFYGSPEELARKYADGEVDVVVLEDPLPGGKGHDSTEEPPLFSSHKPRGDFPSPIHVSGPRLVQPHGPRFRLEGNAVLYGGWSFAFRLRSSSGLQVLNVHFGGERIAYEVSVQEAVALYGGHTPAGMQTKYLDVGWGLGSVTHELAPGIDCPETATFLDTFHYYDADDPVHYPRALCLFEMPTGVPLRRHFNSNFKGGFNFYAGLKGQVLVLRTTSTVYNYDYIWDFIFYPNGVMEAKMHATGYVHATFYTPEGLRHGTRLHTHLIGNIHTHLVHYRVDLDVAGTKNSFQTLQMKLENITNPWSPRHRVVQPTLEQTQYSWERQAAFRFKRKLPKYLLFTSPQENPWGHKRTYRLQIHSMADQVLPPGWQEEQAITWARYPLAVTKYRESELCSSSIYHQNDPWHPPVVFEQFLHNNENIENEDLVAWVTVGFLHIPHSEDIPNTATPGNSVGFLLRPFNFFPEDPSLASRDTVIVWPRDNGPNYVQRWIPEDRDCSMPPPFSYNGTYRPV
Outline: as §1

[4] = recombinant human VAP-1, benzylamine substrate
[5] = recombinant human VAP-1, 30 min preincubation at 37° C., 1 mM benzylamine

| Compound | IC50 (recombinant human VAP-1; [4]) | IC50 ([1]; 1 mM benzylamine substrate) | IC50 ([2]; 0.5 mM tyramine substrate) | IC50 ([3]; 1 mM putrescine substrate) | IC50 (recombinant human VAP-1; [5]) | IC50 ([1]; 1 mM benzylamine) | IC50 ([2]; 0.5 mM tyramine) | IC50 ([3]; 1 mM putrescine) |
| --- | --- | --- | --- | --- | --- | --- | --- | --- |
| NCC(Cn1ncn(Cc2cccc(-c3ccc4c(c3)OCO4)c2)c1=O)=C(F)F [Example 274, 2-[2-(aminomethyl)-3,3-difluoro-allyl]-4-[[3-(1,3-benzodioxol-5-yl)phenyl]methyl]-1,2,4-triazol-3-one Trifluoroacetate] | 3.1 nM | 125 nM | > 100000 nM | 54100 nM | – | – | – | – |
| NCC(Cn1ncn(Cc2ccc(-c3cnc4c(c3)CCCN4)s2)c1=O)=C(F)F [Example 145, 2-[2-(aminomethyl)-3,3-difluoro-allyl]-4-[[5-(5,6,7,8-tetrahydro-1,8-naphthyridin-3-yl)-2-thienyl]methyl]-1,2,4-triazol-3-one Ditrifluoroacetate] | – | – | – | – | 0.8 nM | > 100000 nM | > 100000 nM | > 100000 nM |
| Cc1cc(-c2ccc(S(C)(=O)=O)cc2)cnc1-n1cnn(CC(CN)=C(F)F)c1=O [Example 68, 2-[2-(aminomethyl)-3,3-difluoro-allyl]-4-[3-methyl-5-(4-methylsulfonylphenyl)-2-pyridyl]-1,2,4-triazol-3-one Trifluoroacetate] | – | – | – | – | 0.5 nM | 55000 nM | > 100000 nM | 2100 nM |
| Cc1cc(-c2ccc(N3CCOCC3)cc2)cnc1-n1cnn(CC(CN)=C(F)F)c1=O [Example 237, 2-[2-(aminomethyl)-3,3-difluoro-allyl]-4-[3-methyl-5-(4-morpholinophenyl)-2-pyridyl]-1,2,4-triazol-3-one Trifluoroacetate] | 0.42 nM | 84000 nM | > 100000 nM | 6100 nM | – | – | – | – |

Continued, values first:

| IC50 (recombinant human VAP-1; [4]) | IC50 ([1]; 1 mM benzylamine substrate) | IC50 ([2]; 0.5 mM tyramine substrate) | IC50 ([3]; 1 mM putrescine substrate) | IC50 (recombinant human VAP-1; [5]) | IC50 ([1]; 1 mM benzylamine) | IC50 ([2]; 0.5 mM tyramine) | IC50 ([3]; 1 mM putrescine) | Compound |
| --- | --- | --- | --- | --- | --- | --- | --- | --- |
| 2.7 nM | 14000 nM | > 100000 nM | > 100000 nM | – | – | – | – | Cc1cc(C#Cc2cnc3c(c2)OCC(=O)N3)cnc1-n1cnn(CC(CN)=C(F)F)c1=O [Example 248, 7-[2-[6-[1-[2-(aminomethyl)-3,3-difluoro-allyl]-5-oxo-1,2,4-triazol-4-yl]-5-methyl-3-pyridyl]ethynyl]-4H-pyrido[3,2-b][1,4]oxazin-3-one trifluoroacetate] |
| 0.8 nM | 1900 nM | > 100000 nM | 5500 nM | – | – | – | – | COc1cc(-c2cnc(-n3cnn(CC(CN)=C(F)F)c3=O)c(C)c2)cc(OC)c1OC [Example 224, 2-[2-(aminomethyl)-3,3-difluoro-allyl]-4-[3-methyl-5-(3,4,5-trimethoxyphenyl)-2-pyridyl]-1,2,4-triazol-3-one Trifluoroacetate] |
